Source: PubChem BioAssay (NCI)
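Grown in 96-well plates, cells were treated for 48 hours with each compound at five concentrations. Insufficient inhibition: endpoint recorded as highest concentration tested. TGI: total growth inhibition.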

Key:
Test in all cases: NCI anticancer screen, dose series, 48 h
SR leukemia = system: SR leukemia
CCRF-CEM leukemia = system: CCRF-CEM leukemia
K-562 leukemia = system: K-562 leukemia
NCI-H23 lung = system: NCI-H23 lung
COLO 205 colon = system: COLO 205 colon
HT29 colon = system: HT29 colon
SK-MEL-2 melanoma = system: SK-MEL-2 melanoma
OVCAR-4 ovarian = system: OVCAR-4 ovarian
CAKI-1 renal = system: CAKI-1 renal
OVCAR-3 ovarian = system: OVCAR-3 ovarian
HOP-62 NSCLC = system: HOP-62 NSCLC
NCI-H522 lung = system: NCI-H522 lung
SK-MEL-5 melanoma = system: SK-MEL-5 melanoma
A549 NSCLC = system: A549 NSCLC
SK-OV-3 ovarian = system: SK-OV-3 ovarian
MDA-MB-231 breast = system: MDA-MB-231 breast
NCI-H460 lung = system: NCI-H460 lung
OVCAR-8 ovarian = system: OVCAR-8 ovarian
SNB-75 CNS = system: SNB-75 CNS
PC-3 prostate = system: PC-3 prostate
HCT-15 colon = system: HCT-15 colon
SF-268 CNS = system: SF-268 CNS
HOP-92 NSCLC = system: HOP-92 NSCLC
NCI/ADR-RES ovarian = system: NCI/ADR-RES ovarian
RPMI-8226 leukemia = system: RPMI-8226 leukemia
EKVX NSCLC = system: EKVX NSCLC
M14 melanoma = system: M14 melanoma
SK-MEL-28 melanoma = system: SK-MEL-28 melanoma
U251 CNS = system: U251 CNS
UACC-257 melanoma = system: UACC-257 melanoma
HS 578T breast = system: HS 578T breast
A498 renal = system: A498 renal
SF-295 CNS = system: SF-295 CNS
MDA-MB-435 = system: MDA-MB-435
UO-31 renal = system: UO-31 renal
MCF7 breast = system: MCF7 breast
SN12C renal = system: SN12C renal
T-47D breast = system: T-47D breast
MOLT-4 leukemia = system: MOLT-4 leukemia
TK-10 renal = system: TK-10 renal
KM12 colon = system: KM12 colon
OVCAR-5 ovarian = system: OVCAR-5 ovarian
HL-60(TB) leukemia = system: HL-60(TB) leukemia
ACHN renal = system: ACHN renal
DU-145 prostate = system: DU-145 prostate
786-0 renal = system: 786-0 renal
IGROV1 ovarian = system: IGROV1 ovarian
SW-620 colon = system: SW-620 colon
UACC-62 melanoma = system: UACC-62 melanoma
MDA-N = system: MDA-N
NCI-H226 lung = system: NCI-H226 lung
SNB-19 CNS = system: SNB-19 CNS
HCT-116 colon = system: HCT-116 colon
LOX IMVI melanoma = system: LOX IMVI melanoma
HCC-2998 colon = system: HCC-2998 colon
BT-549 breast = system: BT-549 breast
RXF 393 renal = system: RXF 393 renal
MALME-3M melanoma = system: MALME-3M melanoma
SF-539 CNS = system: SF-539 CNS

Measured: TGI

C=C(CCOC)CCC1CCCCC(=C)[C@H]1O (some centres undefined)
not listed: LOX IMVI melanoma | HCC-2998 colon | BT-549 breast | RXF 393 renal | MALME-3M melanoma | SF-539 CNS
> 100 µM: all other assays above

CN(C)CCNC(=O)c1cc(NC(=O)c2cc(NC(=O)CC/C=C3/[C@@H]4CC[C@H]3N=N4)cn2C)cn1C
not listed: SK-OV-3 ovarian | T-47D breast | UACC-62 melanoma
> 100 µM: all other assays above
